In ChEMBL document CHEMBL1208672, “Novel 8-arylated purines as inhibitors of glycogen synthase kinase” (Eur J Med Chem, 2010):

Tests used:
[1] = target: Cyclin-dependent kinase 5/CDK5 activator 1 (Homo sapiens) (UniProt Q00535+Q15078); experiment: Inhibition of CDK5/p25 assessed as residual activity at 1 uM relative to control; format: protein-complex assay
[2] = target: Glycogen synthase kinase-3 alpha (Homo sapiens) (UniProt P49840); experiment: Inhibition of human GSK3alpha assessed as residual activity at 1 uM relative to control
Sequence of Glycogen synthase kinase-3 alpha (Homo sapiens) (P49840 2-483 limits assumed): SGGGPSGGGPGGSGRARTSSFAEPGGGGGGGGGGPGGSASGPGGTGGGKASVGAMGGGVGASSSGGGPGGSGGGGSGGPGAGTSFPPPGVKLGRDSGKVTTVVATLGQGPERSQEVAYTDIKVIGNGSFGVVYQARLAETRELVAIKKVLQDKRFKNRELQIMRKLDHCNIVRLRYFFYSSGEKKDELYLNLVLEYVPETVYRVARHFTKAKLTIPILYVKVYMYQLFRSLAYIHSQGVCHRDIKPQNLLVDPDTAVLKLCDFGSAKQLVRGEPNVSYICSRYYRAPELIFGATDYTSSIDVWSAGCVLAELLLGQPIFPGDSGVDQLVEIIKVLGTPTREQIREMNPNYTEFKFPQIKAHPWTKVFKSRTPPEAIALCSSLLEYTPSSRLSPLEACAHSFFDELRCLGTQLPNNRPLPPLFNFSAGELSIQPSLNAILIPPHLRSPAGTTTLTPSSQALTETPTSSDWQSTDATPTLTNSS

[3] = target: Glycogen synthase kinase-3 beta (Homo sapiens, UniProt P49841)
Sequence of Glycogen synthase kinase-3 beta (P49841 whole entry): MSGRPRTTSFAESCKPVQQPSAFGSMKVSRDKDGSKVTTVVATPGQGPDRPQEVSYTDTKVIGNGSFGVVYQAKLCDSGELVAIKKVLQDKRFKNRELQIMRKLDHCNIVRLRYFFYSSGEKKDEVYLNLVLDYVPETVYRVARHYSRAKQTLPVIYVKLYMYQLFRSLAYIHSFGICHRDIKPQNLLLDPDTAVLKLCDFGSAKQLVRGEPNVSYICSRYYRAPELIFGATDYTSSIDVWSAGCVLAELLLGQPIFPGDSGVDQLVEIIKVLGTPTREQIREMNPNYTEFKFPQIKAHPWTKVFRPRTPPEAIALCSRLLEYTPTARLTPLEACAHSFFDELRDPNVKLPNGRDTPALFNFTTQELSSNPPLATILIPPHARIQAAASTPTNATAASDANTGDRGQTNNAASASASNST
Description: Inhibition of human GSK3-beta

Sequence of Cyclin-dependent kinase 5/CDK5 activator 1 (Homo sapiens) (Q00535 whole entry): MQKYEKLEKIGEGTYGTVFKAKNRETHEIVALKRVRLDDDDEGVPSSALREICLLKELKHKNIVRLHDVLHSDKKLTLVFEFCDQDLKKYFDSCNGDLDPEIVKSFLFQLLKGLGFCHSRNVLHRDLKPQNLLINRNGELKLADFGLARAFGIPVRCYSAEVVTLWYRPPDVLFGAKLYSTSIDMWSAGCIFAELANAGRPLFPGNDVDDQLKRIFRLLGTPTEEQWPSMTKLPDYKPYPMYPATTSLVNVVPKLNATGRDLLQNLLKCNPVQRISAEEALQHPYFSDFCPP
Sequence of Cyclin-dependent kinase 5/CDK5 activator 1 (Homo sapiens) (Q15078 99-307 partner limits assumed): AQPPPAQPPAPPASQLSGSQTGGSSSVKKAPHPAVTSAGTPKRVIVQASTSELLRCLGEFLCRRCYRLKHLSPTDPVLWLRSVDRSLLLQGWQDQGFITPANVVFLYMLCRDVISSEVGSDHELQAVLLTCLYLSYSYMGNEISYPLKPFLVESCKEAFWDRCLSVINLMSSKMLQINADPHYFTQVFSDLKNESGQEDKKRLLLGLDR

Compound | Activity [1] | Activity [2] | IC50 [3]
CN[C@@H]1C[C@H]2O[C@@](C)([C@@H]1OC)n1c3ccccc3c3c4c(c5c6ccccc6n2c5c31)C(=O)NC4 | 98.4% |  | 
Cn1c(-c2ccc(Cl)cc2)nc2ncnc(N3CCCC3)c21 | 97% |  | 
Cn1c(-c2ccccc2)nc2c(NCc3cccnc3)ncnc21 | 99% |  | 
COc1ccc(-c2nc3ncnc(NCc4ccccc4)c3n2C)cc1 | 102% |  | 
CC(=O)Nc1ncnc2[nH]c(-c3cccc(C#N)c3)nc12 | 103% | 79% | 
CN(C)c1ncnc2[nH]c(-c3ccccc3)nc12 | 85% |  | 
O=C(Nc1ncnc2[nH]c(-c3cccc(Cl)c3)nc12)C1CC1 | 100% | 17% | 365 nM
CCCCC(=O)Nc1ncnc2[nH]c(/C=C/c3ccccc3)nc12 | 103% | 55% | 
C(=C\c1nc2c(NCCN3CCOCC3)ncnc2[nH]1)/c1ccccc1 | 101% | 99% | 
CCCCC(=O)Nc1ncnc2[nH]c(-c3cccc(C#N)c3)nc12 | 101% | 34% | 
C(=C\c1nc2c(N3CCCC3)ncnc2[nH]1)/c1ccccc1 | 101% | 87% | 
CC(=O)Nc1ncnc2[nH]c(-c3ccccc3)nc12 | 101% |  | 
O=C(Nc1ncnc2[nH]c(-c3cccc(Cl)c3)nc12)c1ccccc1 | 102% | 60% | 
O=C(Nc1ncnc2[nH]c(/C=C/c3ccccc3)nc12)c1ccccc1 | 104% | 47% | 
c1ccc(CNc2ncnc3[nH]c(-c4ccccc4)nc23)cc1 | 84% |  | 
CC(=O)Nc1ncnc2[nH]c(-c3ccc4ccccc4c3)nc12 | 98% | 49% | 
O=C(Nc1ncnc2[nH]c(/C=C/c3ccccc3)nc12)C1CC1 | 100% | 55% | 
N#Cc1cccc(-c2nc3c(NC(=O)C4CC4)ncnc3[nH]2)c1 | 103% | 30% | 781 nM
Cn1c(-c2ccc([N+](=O)[O-])cc2)nc2ncnc(NCc3ccccc3)c21 | 101% |  | 
Cn1c(-c2ccc([N+](=O)[O-])cc2)nc2ncnc(N3CCCC3)c21 | 101% |  | 
O=C(Nc1ncnc2[nH]c(-c3ccccc3)nc12)C1CC1 | 96% |  | 
N#Cc1cccc(-c2nc3c(Nc4ccccc4)ncnc3[nH]2)c1 | 63% | 2% | 
COc1ccc(CNc2ncnc3[nH]c(-c4ccccc4)nc23)cc1 | 93% |  | 
c1cncc(-c2nc3c(OCC4CCCCC4)ncnc3[nH]2)c1 | 101% |  | 
O=C(Nc1ncnc2[nH]c(-c3ccccc3)nc12)C1CCCCN1 (centres undefined) | 67% |  | 
CCCCC(=O)Nc1ncnc2nc(-c3cccc(C#N)c3)[nH]c12 |  |  | 1220 nM
COc1ccc(CNc2ncnc3[nH]c(-c4cccnc4)nc23)cc1 | 95% |  | 
O=C(Nc1ncnc2[nH]c(-c3ccccc3)nc12)C1CCCN1 (centres undefined) | 93% |  | 
c1cncc(CNc2ncnc3[nH]c(-c4cccnc4)nc23)c1 | 102% |  | 
CC(C)CC(=O)Nc1ncnc2[nH]c(-c3ccccc3)nc12 | 102% |  | 
